The conditions of series [1]: cited from earlier work; for reported pKa: @ 25° C.
Series [2] can be described thus: pKa of BTB estimated by spectrophotometric titration in water and in model dishwashing detergent. The format is physicochemical. The source says:
Example of color change—pKa measurements—As outlined in the methods described by Brode (Journal of the American Chemical Society, Vol. 46, pp 581-596, 1924) and Puschett et al (Talanta, Vol. 38, Issue #3, pp 335-338, 1991), the pKa of bromothymol blue (BTB) is estimated in water and a model dishwashing detergent containing approximately 30% surfactant (combination of alkylethoxysulfonate and amine oxide). In the absence of detergent, stock solutions of BTB (6-20 ppm) are first adjusted to a pH of 11-12 and titrated with 1% HCl down to a pH of 4.0. After each pH adjustment the absorbance peak at 617 nm (Abs1) is measured and pKa estimated from the abscissa of the point of inflection. In similar fashion, BTB is added at a 60 ppm level to the dishwashing detergent, diluted 10-100 fold with deionized water and titrated with 1% HCl.

Series [3] is described as follows: Ratio of absorbances Abs1:Abs2 as a function of product dilution, pH kept at 9.0. It is filed as physicochemical. To be noted: pH 9.0; for Abs1:Abs2: no detergent. Here is the method:
Example of color change—pH is kept constant upon dilution—As shown in Tables 1 and 2 below, bromothymol blue (BTB) is assessed in representative nil-dye versions of representative hand dishwashing products: a) Dawn® Bleach Alternative, b) Dreft®, and c) nil-dye Fairy® Liquid. In a typical procedure, BTB is directly added to the hand dishwashing detergent (60 ppm BTB) and the visible spectrum monitored (λ=400-700 nm) as a function of product dilution with deionized water. After each dilution, the detergent solution is adjusted to pH 9.0 with 0.1% NaOH and the ratio of absorbances at λmax=615-635 nm (Abs1) and λmax=395-435 nm (Abs2) measured. For comparison, a 60 ppm aqueous solution of BTB is prepared and sequentially diluted with deionized water, the pH again adjusted to 9.0 after each dilution (Table 2).
For the dishwashing detergents containing BTB, the ratio Abs1:Abs2 increases upon dilution, the most significant increase occurring at product concentrations ≦2.5%. […] Absorption measurements for Tables 1 and 2 are made on an HP UV/Visibile 8453 Spectrophotometer (Hewlett-Packard).

Broadly, the pKa is the pH at which an ionisable group is half protonated.

Regarding `Cc1c(C2(c3cc(Br)c(O)c(Br)c3C)OS(=O)(=O)c3ccccc32)cc(Br)c(O)c1Br` [bromocresol green], the “reported pKa” value in series [1] is reported as 4.7.

For the compound `Cc1c(C2(c3cc(C(C)C)c(O)c(Br)c3C)OS(=O)(=O)c3ccccc32)cc(C(C)C)c(O)c1Br` [BTB, bromothymol blue], the “reported pKa” value in series [1] is 7.1. Also, the “pKa, literature value” in series [1] is 7.1. In addition, the pKa in series [2] (model dishwashing detergent diluted with deionized water, detergent conc 1 %, model dishwashing detergent (approx. 30% surfactant)) is 8.2; in series [2] (model dishwashing detergent diluted with deionized water, detergent conc 5 %, model dishwashing detergent (approx. 30% surfactant)), 9; in series [2] (model dishwashing detergent diluted with deionized water, detergent conc 10 %, model dishwashing detergent (approx. 30% surfactant)) it was 9.4; in series [2] (water without detergent, detergent conc 0 % (water, absence of detergent)), 7.3. The “Abs1:Abs2” value in series [3] (BTB in water 0.3 ppm (product conc. 0.5 %)) was determined as 5.00; in series [3] (BTB in water 0.6 ppm (product conc. 1 %)) it was 4.68; in series [3] (BTB in water 1.2 ppm (product conc. 2 %)) it was 4.14; in series [3] (BTB in water 2.4 ppm (product conc. 4 %)), 4.59; in series [3] (BTB in water 3.0 ppm (product conc. 5 %)), 4.37; in series [3] (BTB in water 3.6 ppm (product conc. 6 %)) it was 4.52. The “Abs1:Abs2” value is on record as 4.35 in series [3] (BTB in water 4.8 ppm (product conc. 8 %)); 4.47 in series [3] (BTB in water 6.0 ppm (product conc. 10 %)); 4.31 in series [3] (BTB in water 7.2 ppm (product conc. 12 %)); 4.29 in series [3] (BTB in water 9.6 ppm (product conc. 16 %)); 4.23 in series [3] (BTB in water 10.8 ppm (product conc. 18 %)); 4.16 in series [3] (BTB in water 12.0 ppm (product conc. 20 %)). Besides, in series [3] (dilution with deionized water), the “change in the ratio Abs1:Abs2 upon dilution” value is recorded as “no significant change”.

Consider `O=S1(=O)OC(c2cc(Br)c(O)c(Br)c2)(c2cc(Br)c(O)c(Br)c2)c2ccccc21` [bromophenol blue], for which the “reported pKa” value in series [1] is given as 4.0.

Turning to `Cc1cc(C2(c3cc(C)c(O)c(Br)c3C)OS(=O)(=O)c3ccccc32)c(C)c(Br)c1O` [bromoxylenol blue], in series [1], the “reported pKa” value is 7.0.

Turning to `Cc1cc(C2(c3cc(C)c(O)c(Br)c3)OS(=O)(=O)c3ccccc32)cc(Br)c1O` [bromocresol purple], the “reported pKa” value in series [1] is recorded as 6.3.

The values above are taken from patent US20090057619A1, “Compositions and Visual Perception Changing Methods” (priority 2007, published 2009).
